Assay: gradient 5% acetonitrile 3 min, to 50% in 2 min, to 85% in 15 min, held 3 min, 100 µL/min
Conditions: column: Zorbax Extend-C18 2.1 x 50 mm; eluents: water / acetonitrile, 0.1% formic acid
In short: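 Standards, all pure, were combined into mixtures of ~100 molecules and run at 100 μL/min on a Zorbax Extend-C18 column (2.1 × 50 mm, 1.8 μm) with water and acetonitrile, each containing 0.1% formic acid. A coupled quadrupole time-of-flight mass spectrometer operated in positive and negative ionization mode. Retention time values come from computationally picked adduct peaks, each inspected manually.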

SMILES	RP-LC retention time [s]
CCc1ccc(-n2nc(C)c3c(C(F)(F)F)cc(OCC(=O)N4CCCC4)nc32)cc1	1220
COc1ccc2c(c1)CCN(C(=O)CNC(=O)c1ccc(=O)[nH]c1)C2	583
CC1CCN(c2ncc3c(n2)CCC(C(=O)NCCc2cccnc2)C3)CC1 (stereo not drawn)	598
COc1cccc(NC(=O)N2CCC3(CC2)NC(=O)c2ccc(F)cc2N3C)c1	723
N#Cc1ccc(NC(=O)Cn2cc(-c3ccccc3)c3ncn(C4CC4)c(=O)c32)cc1	885
COc1ccc(NC(=O)N2CCN(CCn3c(C(F)(F)F)nc4cccnc43)CC2)cc1OC	611
O=C(Nc1nccs1)C1CCN(c2nc(-c3ccc(Cl)cc3)no2)CC1	976
Cc1ccc(N2N=C(C(=O)NCC3CCCO3)S(=O)(=O)c3cc(F)ccc32)cc1 (stereo not drawn)	877
CC1CCN(C(=O)C2CCN(c3nc4ccc(-c5cccnc5)nc4s3)CC2)CC1	630
CC(C)NC(=O)N1CCCC(c2cccc(C(=O)NCCN3CCCCC3)c2)C1 (stereo not drawn)	608
O=c1n(Cc2ccc(Cl)cc2)nc2ccc(S(=O)(=O)N3CCCCC3)cn12	1000
Cc1cc(Cl)ccc1S(=O)(=O)N1CCCC(Cn2cnc3cccnc32)C1 (stereo not drawn)	853
CC(C)(C)C(=O)N1C[C@@H](CO)[C@H](c2nc(-c3ccncc3)no2)C1	631
CC(C)CC(=O)Nc1c(-c2ccc(F)cc2)nc2ccccn12	650
Cc1cnc(CCNS(=O)(=O)c2ccc(C#N)cc2)n1C1CC1	960
Nc1cc(C2CCN(C(=O)Nc3ccc(Cl)cc3F)CC2)no1	717
O=C(NCc1ccccc1)C1(CCO)CC12CCOCC2 (stereo not drawn)	627
CCOc1ccc(C(=O)NCCCN2CCN(c3ccccc3)CC2)cc1	586
COc1ccc(NC(=O)c2nc(C(C)C)oc2C)cc1Cl	1080
CCc1nc2cc(N3CCC(C(=O)NCc4ccccn4)CC3)cnc2nc1CC	601
Cc1noc(-c2cc(=O)n(CC(=O)Nc3cccc(Cl)c3)c3ccccc23)n1	927
COc1cccc(-c2nc(C3CCN(S(=O)(=O)c4cccc(Cl)c4)CC3)no2)c1	1160

SMILES	RP-LC retention time [s]
COc1ccc(CN2CCC(C3CCNC3)CC2)c(Cl)c1OC (stereo not drawn)	556
COC(=O)C1=CN(c2cccc(C#N)c2)c2ccccc2S1(=O)=O	754
Cc1cccc(CN2C(=O)N(c3ccc(F)cc3)c3ncccc3S2(=O)=O)c1	1090
COC(=O)c1ccc(C(=O)NCC2(O)CCOCC2)cc1	584
Cc1ccccc1CNC(=O)C1CCCN(c2nccnc2Sc2ccccc2)C1 (stereo not drawn)	1200
COc1ccc(CNC(=O)c2ccc3c(c2)nc2n3CCN(C(C)C)C2=O)c(OC)c1	708
Cc1ccc(CN2CC(=O)N(c3cccc(Cl)c3)[C@@H]3CS(=O)(=O)C[C@@H]32)cc1	917
CN(CC1CCOC1)C(=O)Nc1c(F)cccc1F (stereo not drawn)	638
Cc1nn(CC(=O)N(C)Cc2ccccc2)c(=O)c2nc(-c3ccccc3)sc12	942
Cc1nc2cc(-c3noc(-c4ccccc4)n3)ccc2o1	1050
O=C(NCc1ccc2c(c1)OCO2)C1CCCN(c2ccc(N3CCOCC3)nn2)C1 (stereo not drawn)	609
Cc1nc(-c2ccccc2)c(-c2ccncc2)o1	855
CCOC(=O)Cn1c(=O)c2c(nc3n2CC(C)CN3CCc2ccccc2)n(C)c1=O (stereo not drawn)	985
CCNc1cc(N2CCC(CCC(=O)Nc3ccc(OCC)cc3)CC2)ncn1	682
O=C(c1cccc(Br)c1)N1CCN(Cc2noc3ccccc23)CC1	756
CCOCCCNCc1ccc(-c2cccc(Cl)c2)o1	687
Fc1cc(F)cc(Cn2cccc2-c2nc(-c3ccncc3)no2)c1	1110
COc1cc(NC(=O)C2(Cc3ccccc3)CCCCC(=O)N2)cc(OC)c1 (stereo not drawn)	847
CCn1nnc2c(N3CCN(S(=O)(=O)c4cccc(C(F)(F)F)c4)CC3)ncnc21	894
COCCn1cc(C(=O)Nc2cccc(F)c2)c2nn(-c3ccccc3)c(=O)c-2c1	970
COc1ccc(S(=O)(=O)N2CC3CN(C(=O)C(C)Oc4ccccc4)CC(C2)O3)cc1 (stereo not drawn)	844
CC1CCN(CCNC(=O)Cn2c(=O)n(-c3ccc(F)cc3)c3ncccc32)CC1	614

SMILES	RP-LC retention time [s]
COc1ccc(-n2c(=O)c(C(=O)NCc3ccc4c(c3)OCO4)c(O)c3cccnc32)cc1	1090
CN(C)C(=O)C1CCN(S(=O)(=O)Cc2ccc(F)cc2)CC1	691
Cc1ccc(N2C(=O)C3N=NN(Cc4nc(-c5ccccc5Cl)no4)C3C2=O)cc1 (stereo not drawn)	996
CCN1CCN(CCNC(=O)C(C)C2CCN(C(=O)c3cc4cc(Cl)ccc4[nH]3)CC2)CC1 (stereo not drawn)	630
CC1(O)CCOC2(CCN(Cc3cn[nH]c3-c3ccccc3)CC2)C1 (stereo not drawn)	584
CCn1ccc2cc(S(=O)(=O)N3CCCC(C(=O)NCCC(C)C)C3)ccc21 (stereo not drawn)	980
CCn1c(=O)n(-c2ccc(F)cc2)c2nc(-c3ccc(F)c(F)c3)nc(C(N)=O)c21	1050
O=C(COc1ccccc1)Nc1nc(-c2ccc(F)cc2)cs1	1050
Cc1cc(C)cc(NC(=O)Cn2c(=O)c3cc(C4CC4)nn3c3ncccc32)c1	837
Cc1ccc(C)c(NC(=O)N2CCC3(CC2)NC(=O)c2ccc(F)cc2N3C)c1	769
Cc1cccc(-c2nnc(-c3cc(S(=O)(=O)N(C)C)ccc3F)o2)c1	994
CC1(C)CC(=O)C2=C(C1)N(Cc1ccco1)C(=O)C2(NC(=O)CCc1ccccc1)C(F)(F)F (stereo not drawn)	996
Cc1cc(-c2ccc(S(=O)(=O)N3CCN(c4ccccn4)CC3)s2)n[nH]1	623
O=C(Cn1nc(N2CCSCC2)c2ccccc2c1=O)Nc1cccc(Cl)c1	1010
CCn1ccc2c(cc(C(=O)Nc3ccc(F)cc3)n2C)c1=O	754
Cc1cccc(NC(=O)NCC(c2cccnc2)c2cn(C)c3ccccc23)c1 (stereo not drawn)	723
O=C(CN1CC=C(c2cnn(-c3ccccc3)c2)CC1)NCC1CCCO1 (stereo not drawn)	612
COc1ccc(NC(=O)N2CCCN(C3CCN(Cc4ccc(F)cc4)C3=O)CC2)cc1 (stereo not drawn)	570
Cc1oc(-c2cccc(Cl)c2)nc1Cn1nnc(-c2nc(-c3ccccc3)no2)c1C	1320
Cc1cccc(CC(=O)N2C[C@@H]3C[C@H](NC(=O)c4cccs4)[C@H]2C3)c1	787
CCCC(=O)Nc1cnc(-c2ccc(Cl)cc2)nc1	958
O=C(Cn1ccc2c(SCc3ccccc3)nccc21)N1CCN(c2ccccc2)CC1	768

SMILES	RP-LC retention time [s]
CCn1c(=O)c2cc(C(=O)Nc3cccc(C(=O)OC)c3)nn2c2ccccc21	977
O=C(c1csc(N2CCN(c3ccc(F)cc3)CC2)n1)N1CCCCC1	1000
Cc1cccc(-c2noc(Cn3c(=O)n(-c4ccccc4)c(=O)c4sccc43)n2)c1	1000
COc1ccc(-c2nc(Cn3cnc4ccccc4c3=O)no2)cc1OC	765
CCOC(=O)c1cccc(NC(=O)C2CCCN(c3nnc(C)c4c(C)n(-c5ccccc5)nc34)C2)c1 (stereo not drawn)	797
Cc1cc(=O)n(CC(=O)Nc2cc(Cl)ccc2C)c(N2CCOCC2)n1	736
CCc1nc(-c2cc(S(=O)(=O)NCC(=O)NC3CCCc4ccccc43)c(C)s2)no1 (stereo not drawn)	998
CC(=O)Nc1ccc(NC(=O)C2CCN(S(=O)(=O)c3ccc4c(c3)sc(=O)n4C)CC2)cc1	686
O=C(NCCn1nnc2cc(C(=O)N3CCCC3)ccc21)Nc1ccc(Cl)cc1	792
CC(C)C(=O)N1CCc2c([nH]c3ccccc23)C12C(=O)N(C)c1ccc(Br)cc12 (stereo not drawn)	976
CCOc1ccc(-c2nc(CNC(=O)Nc3cc(OC)ccc3OC)c(C)o2)cc1	963
O=C(Cc1csc(SCc2ccc(Br)cc2)n1)NCc1cccs1	978
Cc1ccc(CC(=O)NC2CCN(c3cc(-c4cccs4)[nH]n3)C2)cc1 (stereo not drawn)	732
COc1ccc(-c2coc3cc(OC(=O)c4ccc5c(c4)OCO5)ccc3c2=O)cc1OC	981
CCOC(=O)C1CCN(c2nc(-c3ccc(OC)cc3)no2)CC1	981
O=C1CC(c2nc(-c3ccc(C(F)(F)F)cc3)no2)CN1c1ccc2c(c1)OCCO2 (stereo not drawn)	1030
O=C(c1cnn(-c2ccccc2)n1)N1CC(c2nc3ccccc3[nH]2)C1	578
COC(=O)c1ccc2c(=O)n(-c3ccccc3)c(N3CCCCC3)nc2c1	1170
O=C(CCn1nnc2cc(-c3noc(/C=C/c4ccccc4)n3)ccc21)N1CCCC1	954
COc1ccc(OCC(=O)N2CCCC2c2nc(-c3ccc(OC)cc3)no2)cc1 (stereo not drawn)	934
Cc1nnc(-c2cc(C)n(CC(=O)Nc3ccc(Br)cc3C)c2C)o1	847
CCOC(=O)c1noc2ncnc(Nc3cc(Cl)ccc3OC)c12	1080

Reference: the METLIN SMRT retention time set (Domingo-Almenara et al. 2019)
